Tests used:
Assay type in all cases: in vivo
CF-1 male albino mice = test: Maximal Electroshock Test (MES), anticonvulsant activity
Procedure: Anticonvulsant activity was determined using the MES test, run according to the procedure described in detail below. Swinyard E A, Woodhead J H, White H S, Franklin M R. Experimental selection, quantification, and evaluation of anticonvulsants. In Levy R H, et al., eds. Antiepileptic Drugs. 3rd ed. New York: Raven Press, 1989:85-102.
CF-1 male albino mice (25-35 g) were fasted for 16 hours before testing. Mice were randomly selected into control and test groups, with the animals dosed with vehicle or test compound, at varying concentrations, respectively. […] Seizures were induced by trans-corneal electric shock using a 60-Hz alternating current, 50 mA, delivered for 0.2 sec. […] […] The test was complete when the entire course of the convulsion has been observed (typically, less than 1 minute after electrical stimulation), and the mice were then immediately euthanized by carbon dioxide inhalation.
Abolition of the full body tonic extensor component of the seizure was taken as the endpoint of the test. […] The ED50 value of the test compound (calculated when appropriate) was the calculated dose required to block the hind limb tonic-extensor component of the MES-induced seizure in 50% of the rodents tested. A probit analysis was used to calculate the ED50 and 95% fiducial limits (FL).
Results are listed as (number of mice with full body tonic extension prevented)/(total number of mice tested) (@ a given time).

[1] = Mice studies dosing with the compound of formula (A): plasma and brain analyses; details: mice dosed with the compound of formula (A)
Description: (§1) The compound of formula (A) was initially isolated from human plasma samples from clinical trials dosing with the compound of formula (S). Additionally, the compound of formula (A) is a pro-drug of the compound of formula (S).

[2] = Human plasma samples from clinical trials dosing with the compound of formula (S)
Description: and pharmaceutically acceptable salts thereof.
as §1

Row | SMILES | MES Activity, (number of mice with full body tonic extension prevented)/(total number of mice tested) (CF-1 male albino mice; 200 mg/kg po, 0.50 Hrs) | MES Activity, (number of mice with full body tonic extension prevented)/(total number of mice tested) (CF-1 male albino mice; 200 mg/kg po, 1.0 Hrs) | MES Activity, (number of mice with full body tonic extension prevented)/(total number of mice tested) (CF-1 male albino mice; 200 mg/kg po, 2 Hrs) | MES Activity, (number of mice with full body tonic extension prevented)/(total number of mice tested) (CF-1 male albino mice; 200 mg/kg po, 3 Hrs) | MES Activity, (number of mice with full body tonic extension prevented)/(total number of mice tested) (CF-1 male albino mice; 200 mg/kg po, 6 Hrs) | plasma and brain levels of compound (A) and compound (S) after dosing (pro-drug conversion) [1] | metabolite found in human plasma [2] | MES Activity, (number of mice with full body tonic extension prevented)/(total number of mice tested) (CF-1 male albino mice; 150 mg/kg po, 3 Hrs)
1 | CC(=O)NS(=O)(=O)NC[C@H]1COc2cc(Cl)ccc2O1 [Compound (A), (2S)-(−)-N′-acetyl-N-(6-chloro-2,3-dihydro-benzo[1,4]dioxin-2-ylmethyl)-sulfamide] | 0/5 | 1/5 | 4/5 | 5/5 | 2/5 | levels of the compound of formula (S) higher than those of the compound of formula (A) |  | 
2 | NS(=O)(=O)NC[C@H]1COc2cc(Cl)ccc2O1 [Compound (S), (2S)-(−)-N-(6-chloro-2,3-dihydro-benzo[1,4]dioxin-2-ylmethyl)-sulfamide, reference compound] |  |  |  |  |  |  | The compound of formula (A) is a human metabolite of the compound of formula (S) | 5/5

Reference: patent US8815939B2, “Substituted sulfamide derivatives” (Janssen Pharmaceutica NV, priority 2008, dated 2014)
